Source: article PMC7160231, “Identification and Immobilization of an Invertase With High Specific Activity and Sucrose Tolerance Ability of Gongronella sp. w5 for High Fructose Syrup Preparation” (Frontiers in Microbiology, 2020)

What was measured:
CBM24DG-GspInv = test system: T1, CBM24DG-GspInv; test: initial rate, released glucose by glucose oxidase method, Michaelis-Menten fit; assay type: biochemical, Gongronella sp. w5; details: 50 mM citrate-phosphate pH 5.0, 45°C, 1 mM-2 M sucrose; free (not immobilised) fusion enzyme
T1 construct: Clostridium thermocellum CBM24 fused to N-terminus of GspInv; secreted from K. pastoris GS115 (pPIC9K)
Source text: initial rate, released glucose by glucose oxidase method, Michaelis-Menten fit on CBM24DG-GspInv

GspInv = test system: T2, GspInv; test: as above; assay type: biochemical, Gongronella sp. w5; details: 50 mM citrate-phosphate pH 5.0, 45°C, 1 mM-2 M sucrose
T2 construct: secreted from Komagataella (Pichia) pastoris GS115 with alpha-factor signal of pPIC9K; cDNA 1,761 bp; primer-encoded N-terminus MVLADP, C-terminus FNRP; catalytic D46, D173, E251
Source text: initial rate, released glucose by glucose oxidase method, Michaelis-Menten fit on GspInv

## OC[C@H]1O[C@@](CO)(O[C@H]2O[C@H](CO)[C@@H](O)[C@H](O)[C@H]2O)[C@@H](O)[C@@H]1O [sucrose]
CBM24DG-GspInv
  Km: 10.3 ± 1.2 mM
GspInv
  Km: 8.7 ± 1.1 mM
